In assay [1] the test system is human platelet aggregation by ADP. Nature of the assay: Determination of platelet aggregation in vitro (by ADP), human platelet rich plasma. The class given is cell-based. As to conditions: human PRP, n = 3, ADP 0.6-1 μM, 37° C., read-out: Inhibition of platelet aggregation by ADP, IC50, human. As for the experimental part: (§1) Method […] The sodium citrate--supplemented blood was centrifuged at 950 rpm for 10 minutes and 2,000 rpm for 10 minutes respectively at room temperature to obtain platelet rich plasma (PRP) and platelet poor plasma (PPP). PRP was diluted with PPP to adjust the number of platelets to be 500,000/μl. Platelet aggregation measured spectroscopically in accordance with Born's method (Nature 194: 927, 1962) using an aggregometer (HEMA TRACER VI Toa Iyo Denshi). The PRP (250 μl) was incubated at 37° C. for 2 minutes, to which was then added 25 μl of a test drug solution. Two minutes later, 25 μl of an agent for causing agglutination. The effect of the test drug was shown by the inhibition rate of the maximum aggregation rate of the test group against that of the control group. ADP was used in the minimum concentration (0.6-1 μM) capable of obtaining maximum aggregation. Inhibitory effect on platelet aggregation by ADP of the compounds of Working Examples

The subject of assay [2] is guinea pig platelet aggregation by ADP. As to the kind of experiment: Determination of platelet aggregation in vitro (by ADP), guinea pig platelet rich plasma. The class given is cell-based. As to conditions: Cavia porcellus, guinea pig PRP, n = 3, ADP 0.6-1 μM, 37° C., read-out: Inhibition of platelet aggregation by ADP, IC50, guinea pigs. The method, then:
as §1

In assay [3] the test system is platelet aggregation caused by ADP. Nature of the assay: Ex vivo platelet aggregation experiment (ADP) after oral administration to guinea pigs. The class given is in vivo, guinea pig. As for the experimental part: Method After fasting overnight, guinea pigs were orally administered with a test drug solution (2 ml/kg). Blood was collected from the animals, under anesthesia with pentobarbital, after 1, 4 and 24 hours respectively. By the method described above, PRP was prepared and the platelet aggregation caused by ADP was measured. The rate of inhibition of aggregation was determined by the aggregation rate obtained in the test groups against that obtained in the control. The test drug was administered orally as a solution in distilled water. ADP aggregation inhibiting action by the compound of working Example 1 in guinea pigs

The subject of assay [4] is activated platelets of guinea pigs. As to the kind of experiment: Binding experiment in vitro: specific binding of 125I-fibrinogen to activated platelets of guinea pigs. Further details: species or system guinea pig. As to conditions: n=3; 125I-fibrinogen 0.1 μM; ADP 5×10^-5 M; 2 hours at room temperature; read-out: IC50 value against the specific binding of 125I-fibrinogen to activated platelets of guinea pigs. The method, then:
Method Washed platelets were prepared from sodium citrate--supplemented blood of guinea pig, which were suspended in a Hepes Tyrode solution (pH 7.5) to adjust the number of platelets to be 500,000/μl. To 70 μl of this suspension was added 10 μl of an ADP solution (final concentration: 5×10^-5 M), and the mixture was left standing for 15 minutes at room temperature. To the mixture were added a solution of the test drug and 80 μl of a ^125 I-fibrinogen solution (final concentration: 0.1 μM), which was left standing for 2 hours at room temperature. Onto a 20% sucrose buffer solution was overlaid 100 μl of the reaction mixture, which was subjected to centrifuge at 3,000 rpm to separate platelet-adhesive ^125 I-fibrinogen from non-adhesive one. The radioactivity of the platelet-adhesive ^125 I-fibrinogen was determined. From the value obtained from the test groups against specific binding of the control group (processed with the buffer solution), the adhesion inhibiting ratio was determined. Action of the compound of Working Example 1 against the specific binding of ^125 I-fibrinogen to activated platelets of guinea pigs.

Structures are written as SMILES.

Turning to `CCCOc1ccc(C[C@H](NC(=O)c2ccc(C(=N)N)cc2)C(=O)N2CCN(CC(=O)O)C(=O)[C@@H]2CC(=O)OC)cc1` [Working Example 5], the half-inhibitory concentration (IC50) in assay [1] came out at 40 nM; in assay [2] it was 34 nM.

Regarding `COC(=O)C[C@H]1C(=O)N(CC(=O)O)CCN1C(=O)C(Cc1ccc(O)c(O)c1)NC(=O)c1ccc(C(=N)N)cc1` (mixture of isomers) [Working Example 24], the 50% inhibitory concentration (IC50) in assay [1] worked out at 24 nM; in assay [2] it was 46 nM.

On to `COC(=O)C[C@H]1C(=O)N(CC(=O)O)CCN1C(=O)[C@H](Cc1ccc(OC)cc1)NC(=O)c1ccc(C(=N)N)cc1` [Working Example 3, (S)-4-(4-Amidinobenzoyl-O-Methyl-L-Tyrosyl)-3-Methoxycarbonylmethyl-2-Oxopiperazine-1 -Acetic Acid], for which the 50% inhibitory concentration (IC50) amounted to 10 nM in assay [1] and 15 nM in assay [2]. For the same compound, the “ADP aggregation inhibition rate” value in assay [3] (1 mg/kg p.o., after 1 hour, n=6) stood at 95%; in assay [3] (1 mg/kg p.o., after 4 hour, n=6), 100%.

Consider `COC(=O)C[C@H]1C(=O)N(CC(=O)O)CCN1C(=O)[C@H](Cc1ccc(OC)cc1)NC(=O)c1ccc(CCN)cc1` [Working Example 31], for which the results for the half-maximal inhibitory concentration (IC50) in assay [1] and in assay [2] were 12 nM and 18 nM, respectively.

On to `CCOc1ccc(C[C@H](NC(=O)c2ccc(C(=N)N)cc2)C(=O)N2CCN(CC(=O)O)C(=O)[C@@H]2CC(=O)OC)cc1` [Working Example 4, (S)-4-(4-amidinobenzoyl-O-ethyl-L-tyrosyl)-3-methoxycarbonylmethyl-2-oxopiperazine-1-acetic acid], for which the 50% inhibitory concentration (IC50) in assay [2] turned out to be 120 nM.

For the compound `COC(=O)C[C@H]1C(=O)N(CC(=O)O)CCN1C(=O)[C@H](Cc1ccc(O)c(F)c1)NC(=O)c1ccc(C(=N)N)cc1` [Working Example 22], the IC50 was found to be 18 nM in assay [1] and 47 nM in assay [2].

Consider `C=CCOc1ccc(C[C@H](NC(=O)c2ccc(C(=N)N)cc2)C(=O)N2CCN(CC(=O)O)C(=O)[C@@H]2CC(=O)OC)cc1` [Working Example 18], for which the IC50 worked out at 20 nM in assay [1] and 26 nM in assay [2].

Turning to `COC(=O)C[C@H]1C(=O)N(CC(=O)O)CCN1C(=O)[C@H](Cc1ccc(F)cc1)NC(=O)c1ccc(C(=N)N)cc1` [Working Example 21], the concentration for half-maximal inhibition (IC50) in assay [1] amounted to 26 nM; in assay [2], 38 nM.

On to `COC(=O)C[C@H]1C(=O)N(CC(=O)O)CCN1C(=O)[C@H](Cc1ccc(O)cc1F)NC(=O)c1ccc(C(=N)N)cc1` [Working Example 23], for which the values for the IC50 in assay [1] and in assay [2] were 17 nM and 38 nM, respectively.

On to `COC(=O)C[C@H]1C(=O)N(CC(=O)O)CCN1C(=O)[C@H](Cc1ccc(O)cc1)NC(=O)c1ccc(C(=N)N)cc1.Cl` [Working Example 1, (S)-4-(4-Amidinobenzoyl-L-Tyrosyl)-3-Methoxycarbonylmethyl-2-Oxopiperazine-1-Acetic Acid Hydrochloride], for which the half-maximal inhibitory concentration (IC50) in assay [1] turned out to be 20 nM; in assay [2], 37 nM; in assay [4], 2.7 nM. The “ADP aggregation inhibition rate” value is on record as 100% in assay [3] (3 mg/kg p.o., after 1 hour, n=4); 100% in assay [3] (3 mg/kg p.o., after 4 hour, n=4); 100% in assay [3] (3 mg/kg p.o., after 24 hour, n=3).

By IC50 is commonly meant the concentration that gives 50% inhibition.
